In ChEMBL document CHEMBL1152438, “Design, synthesis, and structure-activity relationships of aminopyridine N-oxides, a novel scaffold for the potent and selective inhibition of p38 mitogen activated protein kinase” (J Med Chem, 2009):
Values after ≈ are worked out from the molar mass of the structure shown.

How the values were obtained:
[1] = Solubility at pH 7.4; type: physicochemical; conditions: buffer
[2] = Solubility at pH 0.1; type: physicochemical; conditions: buffer
[3] = Solubility at pH 9.0; type: physicochemical; conditions: buffer
[4] = Oral bioavailability in rat at 10 mg/kg; type: ADME, organism-based; conditions: in vivo
[5] = Volume of distribution at steady state in rat at 0.5 mg/kg, iv; type: ADME, organism-based; parameters: dose 0.5 mg/kg, route intravenous; conditions: in vivo, read-out: Vdss
[6] = AUC (0 to 6 hrs) in rat at 10 mg/kg, po; type: ADME, organism-based; parameters: time < 6 hr, dose 10 mg/kg, route oral; conditions: plasma
[7] = Tmax in rat at 10 mg/kg, po; type: ADME, organism-based; parameters: dose 10 mg/kg, route oral; conditions: in vivo
[8] = Cmax in rat at 10 mg/kg, po; type: ADME, organism-based; parameters: dose 10 mg/kg, route oral; conditions: in vivo
[9] = Clearance in rat at 0.5 mg/kg, iv; type: ADME, organism-based; parameters: dose 0.5 mg/kg, route intravenous; conditions: in vivo
[10] = Half life in rat at 0.5 mg/kg, iv; type: ADME, organism-based; parameters: dose 0.5 mg/kg, route intravenous; conditions: in vivo
[11] = Half life in rat at 1 mg/kg, iv; type: ADME, organism-based; parameters: dose 1 mg/kg, route intravenous; conditions: in vivo
[12] = Clearance in rat at 1 mg/kg, iv; type: ADME, organism-based; parameters: dose 1 mg/kg, route intravenous; conditions: in vivo
[13] = Volume of distribution at steady state in rat at 1 mg/kg, iv; type: ADME, organism-based; parameters: dose 1 mg/kg, route intravenous; conditions: in vivo, read-out: Vdss

| Compound | solubility [1] | solubility [2] | solubility [3] | also measured |
| --- | --- | --- | --- | --- |
| Cc1cc(C(=O)O)ccc1-c1c(N)c(C(=O)c2ccc(F)cc2F)cc[n+]1[O-] | > 1000 µg/mL | 41 µg/mL (≈ 107 µM) | > 1000 µg/mL | – |
| Cc1cccc(C)c1-c1c(N)c(C(=O)c2ccc(F)cc2F)cc[n+]1[O-] | 69 µg/mL (≈ 195 µM) | 40 µg/mL (≈ 113 µM) | 70 µg/mL (≈ 198 µM) | – |
| Nc1c(C(=O)c2ccc(F)cc2F)cc[n+]([O-])c1-c1c(F)cccc1F | 4 µg/mL (≈ 11 µM) | – | 2 µg/mL (≈ 5.52 µM) | – |
| COCCNC(=O)c1ccc(-c2c(N)c(C(=O)c3ccc(F)cc3F)cc[n+]2[O-])c(C)c1 | 46 µg/mL (≈ 104 µM) | 54 µg/mL (≈ 122 µM) | 49 µg/mL (≈ 111 µM) | – |
| Cc1ccccc1-c1c(N)c(C(=O)c2ccc(F)cc2F)cc[n+]1[O-] | 63 µg/mL (≈ 185 µM) | 110 µg/mL (≈ 323 µM) | 74 µg/mL (≈ 217 µM) | bioavailability [4]: 75%; Vd [5]: 2.3 L/kg; AUC(0-t) at 6 h [6]: 22.2 µM·h; Tmax [7]: 0.75 h; Cmax [8]: 4.7 µM; clearance [9]: 16.7 mL/min/kg; half-life [10]: 1.6 h |
| Nc1c(C(=O)c2ccc(F)cc2F)cc[n+]([O-])c1-c1ccccc1Cl | 59 µg/mL (≈ 164 µM) | 66 µg/mL (≈ 183 µM) | 39 µg/mL (≈ 108 µM) | bioavailability [4]: 23%; half-life [11]: 14.8 h; AUC(0-t) at 6 h [6]: 54.4 µM·h; clearance [12]: 1.7 mL/min/kg; Tmax [7]: 3.5 h; Vd [13]: 1.8 L/kg; Cmax [8]: 11.9 µM |
| COCCOc1ccc(-c2c(N)c(C(=O)c3ccc(F)cc3F)cc[n+]2[O-])c(C)c1 | 67 µg/mL (≈ 162 µM) | 24 µg/mL (≈ 57.9 µM) | 89 µg/mL (≈ 215 µM) | – |
| Cc1cc(OCCN2CCOCC2)ccc1-c1c(N)c(C(=O)c2ccc(F)cc2F)cc[n+]1[O-] | 51 µg/mL (≈ 109 µM) | > 1000 µg/mL | – | – |
| Cc1cc(O)ccc1-c1c(N)c(C(=O)c2ccc(F)cc2F)cc[n+]1[O-] | 37 µg/mL (≈ 104 µM) | 44 µg/mL (≈ 123 µM) | – | – |
